Experimental data reported in US9376429B2, “Sodium channel blockers, preparation method thereof and use thereof” (Daewoong Pharmaceutical Co., Ltd., priority 2012, dated 2016).

Molecular target: T1, sodium ion channel (Nav1.7) (Homo sapiens, UniProt Q15858)
T1 construct: host or cells: HEK293
Assay: Blocking effect against sodium ion channel (Nav1.7), IonFlux16 auto patch clamp, hNav1.7 HEK293 cells
Type: cell-based
Conditions: peak current after 50 seconds treatment, eight concentrations
Method in brief: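 HEK293 cells stably expressing human Nav1.7 were recorded by IonFlux16 automated patch clamp in extracellular solution (pH 7.45, final DMSO ≤0.3%). Peak current was measured after 50 s exposure to each of eight compound concentrations and expressed as percent inhibition relative to pre-compound current.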

T1 sequence (Q15858 whole entry): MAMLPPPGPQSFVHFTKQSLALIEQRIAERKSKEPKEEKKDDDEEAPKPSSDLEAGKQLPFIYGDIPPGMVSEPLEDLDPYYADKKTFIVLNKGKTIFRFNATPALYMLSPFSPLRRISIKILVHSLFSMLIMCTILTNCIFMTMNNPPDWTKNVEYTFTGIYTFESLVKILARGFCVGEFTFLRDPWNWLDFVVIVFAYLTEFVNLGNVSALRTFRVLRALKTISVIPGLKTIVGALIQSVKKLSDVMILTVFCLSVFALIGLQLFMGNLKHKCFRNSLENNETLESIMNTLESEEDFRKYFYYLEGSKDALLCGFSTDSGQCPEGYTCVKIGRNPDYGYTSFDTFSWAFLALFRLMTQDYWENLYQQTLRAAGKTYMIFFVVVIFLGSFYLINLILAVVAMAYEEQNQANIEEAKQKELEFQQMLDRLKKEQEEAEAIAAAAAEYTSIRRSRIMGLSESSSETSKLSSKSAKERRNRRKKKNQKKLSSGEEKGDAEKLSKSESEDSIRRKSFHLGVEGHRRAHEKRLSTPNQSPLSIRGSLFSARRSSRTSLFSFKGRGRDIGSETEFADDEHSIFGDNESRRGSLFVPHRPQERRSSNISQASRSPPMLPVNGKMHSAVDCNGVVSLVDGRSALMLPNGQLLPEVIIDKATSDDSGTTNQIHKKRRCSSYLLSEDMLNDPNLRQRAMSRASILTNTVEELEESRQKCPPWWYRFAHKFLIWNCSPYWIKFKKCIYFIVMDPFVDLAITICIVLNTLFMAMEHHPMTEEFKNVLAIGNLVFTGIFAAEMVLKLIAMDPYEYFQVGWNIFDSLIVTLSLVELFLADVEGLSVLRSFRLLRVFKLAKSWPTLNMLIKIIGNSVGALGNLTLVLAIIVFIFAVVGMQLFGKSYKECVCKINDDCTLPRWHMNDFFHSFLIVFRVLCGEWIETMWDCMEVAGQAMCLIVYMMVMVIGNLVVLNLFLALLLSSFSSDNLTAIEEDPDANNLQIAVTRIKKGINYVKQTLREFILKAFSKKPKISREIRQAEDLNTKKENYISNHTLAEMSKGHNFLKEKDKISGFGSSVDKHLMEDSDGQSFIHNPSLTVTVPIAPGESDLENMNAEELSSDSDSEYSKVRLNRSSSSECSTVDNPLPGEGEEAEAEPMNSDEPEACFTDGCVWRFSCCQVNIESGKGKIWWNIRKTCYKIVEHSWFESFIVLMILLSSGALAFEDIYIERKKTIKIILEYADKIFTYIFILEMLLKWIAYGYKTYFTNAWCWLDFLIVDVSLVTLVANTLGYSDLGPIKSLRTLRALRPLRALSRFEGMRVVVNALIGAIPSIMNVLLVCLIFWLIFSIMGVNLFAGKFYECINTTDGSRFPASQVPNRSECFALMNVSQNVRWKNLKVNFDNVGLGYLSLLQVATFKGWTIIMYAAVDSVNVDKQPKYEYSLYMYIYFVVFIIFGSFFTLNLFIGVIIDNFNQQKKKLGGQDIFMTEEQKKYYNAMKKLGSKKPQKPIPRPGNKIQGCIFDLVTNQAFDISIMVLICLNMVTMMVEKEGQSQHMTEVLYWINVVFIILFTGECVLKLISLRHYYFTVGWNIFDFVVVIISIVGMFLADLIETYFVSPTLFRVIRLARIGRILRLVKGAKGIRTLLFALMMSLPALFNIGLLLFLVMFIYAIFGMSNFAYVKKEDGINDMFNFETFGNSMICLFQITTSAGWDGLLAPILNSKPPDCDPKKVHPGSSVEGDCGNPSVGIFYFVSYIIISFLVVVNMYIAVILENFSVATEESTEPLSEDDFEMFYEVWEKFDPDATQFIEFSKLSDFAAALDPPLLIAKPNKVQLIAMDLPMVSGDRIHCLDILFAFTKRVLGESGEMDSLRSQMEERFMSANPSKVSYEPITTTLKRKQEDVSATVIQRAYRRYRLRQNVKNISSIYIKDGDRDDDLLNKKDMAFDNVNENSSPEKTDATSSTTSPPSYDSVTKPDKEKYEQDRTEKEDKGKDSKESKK

IC50 [nM] | Compound
> 100 | N#Cc1cc(S(=O)(=O)Nc2cscn2)ccc1Oc1cnc(-c2ccc(F)c(F)c2)cc1-c1cccnc1 [Example 85, 3-cyano-4-((6′-(3,4-difluorophenyl)-[3,4′-bipyridin]-3′-yl)oxy)-N-(thiazol-4-yl)benzenesulfonamide]
> 100 | N#Cc1cc(S(=O)(=O)Nc2cscn2)ccc1Oc1cnc(-c2ccc(C(F)(F)F)c(F)c2)cc1-c1cccnc1 [Example 86, 3-cyano-4-((6′-(3-fluoro-4-(trifluoromethyl)phenyl)-[3,4′-bipyridin]-3′-yl)oxy)-N-(thiazol-4-yl)benzenesulfonamide]
> 100 | N#Cc1cc(S(=O)(=O)Nc2cscn2)ccc1Oc1cnc(-c2ccc(F)cc2)cc1-c1cn[nH]c1 [Example 90, 3-cyano-4-((6-(4-fluorophenyl)-4-(1H-pyrazol-4-yl)pyridin-3-yl)oxy)-N-(thiazol-4-yl)benzenesulfonamide]
> 100 | N#Cc1cc(S(=O)(=O)Nc2cscn2)ccc1Oc1cnc(-c2cccc(F)c2)cc1-c1cncnc1 [Example 92, 3-cyano-4-((6-(3-fluorophenyl)-4-(pyrimidin-5-yl)pyridin-3-yl)oxy)-N-(thiazol-4-yl)benzenesulfonamide]
> 100 | O=S(=O)(Nc1cscn1)c1cc(F)c(Oc2cnc(-c3ccc(F)c(F)c3)cc2-c2cncnc2)cc1F [Example 96, 4-((6-(3,4-difluorophenyl)-4-(pyrimidin-5-yl)pyridin-3-yl)oxy)-2,5-difluoro-N-(thiazol-4-yl)benzenesulfonamide]
> 100 | O=S(=O)(Nc1cscn1)c1cc(Cl)c(Oc2cnc(-c3cccc(F)c3)cc2-c2cn(-c3cccnc3)cn2)cc1F [Example 100, 5-chloro-2-fluoro-4-((6-(3-fluorophenyl)-4-(1-(pyridin-3-yl)-1H-imidazol-4-yl)pyridin-3-yl)oxy)-N-(thiazol-4-yl)benzenesulfonamide]
> 100 | N#Cc1cc(S(=O)(=O)Nc2nccs2)ccc1Oc1ccc(-c2cncnc2)nc1-c1ccoc1 [Example 106, 3-cyano-4-((2-(furan-3-yl)-6-(pyrimidin-5-yl)pyridin-3-yl)oxy)-N-(thiazol-2-yl)benzenesulfonamide]
> 100 | Cn1nccc1-c1nc(-c2ccnc(F)c2)ccc1Oc1ccc(S(=O)(=O)Nc2nccs2)cc1C#N [Example 107, 3-cyano-4-((2′-fluoro-6-(1-methyl-1H-pyrazol-5-yl)-[2,4′-bipyridin]-5-yl)oxy)-N-(thiazol-2-yl)benzenesulfonamide]
51 to 100 | N#Cc1cc(S(=O)(=O)Nc2nccs2)ccc1Oc1ccc(-c2ccccc2F)nc1-c1ccoc1 [Example 108, 3-cyano-4-((6-(2-fluorophenyl)-2-(furan-3-yl)pyridin-3-yl)oxy)-N-(thiazol-2-yl)benzenesulfonamide]
< 50 | N#Cc1cc(S(=O)(=O)Nc2nccs2)ccc1Oc1ccc(-c2cccc(F)c2)nc1-c1ccoc1 [Example 110, 3-cyano-4-((6-(3-fluorophenyl)-2-(furan-3-yl)pyridin-3-yl)oxy)-N-(thiazol-2-yl)benzenesulfonamide]
> 100 | N#Cc1cc(S(=O)(=O)Nc2nccs2)ccc1Oc1ccc(-c2ccncc2)nc1-c1ccoc1 [Example 111, 3-cyano-4-((6-(furan-3-yl)-[2,4′-bipyridin]-5-yl)oxy)-N-(thiazol-2-yl)benzenesulfonamide]
> 100 | N#Cc1cc(S(=O)(=O)Nc2nccs2)ccc1Oc1ccc(-c2ccoc2)nc1-c1ccoc1 [Example 114, 3-cyano-4-((2,6-di(furan-3-yl)pyridin-3-yl)oxy)-N-(thiazol-2-yl)benzenesulfonamide]
> 100 | Cn1nccc1-c1nc(-c2cccnc2F)ccc1Oc1ccc(S(=O)(=O)Nc2nccs2)cc1C#N [Example 116, 3-cyano-4-((2′-fluoro-6-(1-methyl-1H-pyrazol-5-yl)-[2,3′-bipyridin]-5-yl)oxy)-N-(thiazol-2-yl)benzenesulfonamide]

The remaining lines, values behind:

Compound | IC50 [nM]
O=S(=O)(Nc1cscn1)c1cc(F)c(Oc2cnc(-c3cccc(F)c3)cc2-c2cccnc2)cc1F [Example 87, 2,5-difluoro-4-((6′-(3-fluorophenyl)-[3,4′-bipyridin]-3′-yl)oxy)-N-(thiazol-4-yl)benzenesulfonamide] | > 100
O=S(=O)(Nc1cscn1)c1cc(F)c(Oc2cnc(-c3ccc(F)c(F)c3)cc2-c2cccnc2)cc1F [Example 88, 4-((6′-(3,4-difluorophenyl)-[3,4′-bipyridin]-3′-yl)oxy)-2,5-difluoro-N-(thiazol-4-yl)benzenesulfonamide] | > 100
O=S(=O)(Nc1cscn1)c1cc(F)c(Oc2cnc(-c3ccc(C(F)(F)F)c(F)c3)cc2-c2cccnc2)cc1F [Example 89, 2,5-difluoro-4-((6′-(3-fluoro-4-(trifluoromethyl)phenyl)-[3,4′-bipyridin]-3′-yl)oxy)-N-(thiazol-4-yl)benzenesulfonamide] | > 100
N#Cc1cc(S(=O)(=O)Nc2cscn2)ccc1Oc1cnc(-c2ccc(F)c(F)c2)cc1-c1cn[nH]c1 [Example 91, 3-cyano-4-((6-(3,4-difluorophenyl)-4-(1H-pyrazol-4-yl)pyridin-3-yl)oxy)-N-(thiazol-4-yl)benzenesulfonamide] | > 100
N#Cc1cc(S(=O)(=O)Nc2cscn2)ccc1Oc1cnc(-c2ccc(F)c(F)c2)cc1-c1cncnc1 [Example 93, 3-cyano-4-((6-(3,4-difluorophenyl)-4-(pyrimidin-5-yl)pyridin-3-yl)oxy)-N-(thiazol-4-yl)benzenesulfonamide] | > 100
N#Cc1cc(S(=O)(=O)Nc2cscn2)ccc1Oc1cnc(-c2ccc(C(F)(F)F)c(F)c2)cc1-c1cncnc1 [Example 94, 3-cyano-4-((6-(3-fluoro-4-(trifluoromethyl)phenyl)-4-(pyrimidin-5-yl)pyridin-3-yl)oxy)-N-(thiazol-4-yl)benzenesulfonamide] | > 100
O=S(=O)(Nc1cscn1)c1cc(F)c(Oc2cnc(-c3cccc(F)c3)cc2-c2cncnc2)cc1F [Example 95, 2,5-difluoro-4-((6-(3-fluorophenyl)-4-(pyrimidin-5-yl)pyridin-3-yl)oxy)-N-(thiazol-4-yl)benzenesulfonamide] | > 100
O=S(=O)(Nc1cscn1)c1cc(F)c(Oc2cnc(-c3ccc(C(F)(F)F)c(F)c3)cc2-c2cncnc2)cc1F [Example 97, 2,5-difluoro-4-((6-(3-fluoro-4-(trifluoromethyl)phenyl)-4-(pyrimidin-5-yl)pyridin-3-yl)oxy)-N-(thiazol-4-yl)benzenesulfonamide] | > 100
O=S(=O)(Nc1cscn1)c1cc(Cl)c(Oc2cnc(-c3ccc(F)c(F)c3)cc2-c2cn[nH]c2)cc1F [Example 98, 5-chloro-4-((6-(3,4-difluorophenyl)-4-(1H-pyrazol-4-yl)pyridin-3-yl)oxy)-2-fluoro-N-(thiazol-4-yl)benzenesulfonamide] | > 100
O=S(=O)(Nc1cscn1)c1cc(Cl)c(Oc2cnc(-c3cccc(F)c3)cc2-c2cncc(N3CCCC3)c2)cc1F [Example 99, 5-chloro-2-fluoro-4-((6′-(3-fluorophenyl)-5-(pyrrolidin-1-yl)-[3,4′-bipyridin]-3′-yl)oxy)-N-(thiazol-4-yl)benzenesulfonamide] | > 100
O=S(=O)(Nc1cscn1)c1cc(Cl)c(Oc2cnc(-c3cccc(F)c3)cc2-c2ccnc(N3CCOCC3)c2)cc1F [Example 101, 5-chloro-2-fluoro-4-((6-(3-fluorophenyl)-2′-morpholino-[4,4′-bipyridin]-3-yl)oxy)-N-(thiazol-4-yl)benzenesulfonamide] | 51 to 100
O=S(=O)(Nc1cscn1)c1cc(Cl)c(Oc2cnc(-c3cccc(F)c3)cc2-c2ccnc(N3CCCCC3)c2)cc1F [Example 102, 5-chloro-2-fluoro-4-((6-(3-fluorophenyl)-2′-(piperidin-1-yl)-[4,4′-bipyridin]-3-yl)oxy)-N-(thiazol-4-yl)benzenesulfonamide] | > 100
N#Cc1cc(S(=O)(=O)Nc2nccs2)ccc1Oc1ccc(-c2cccnc2F)nc1-c1ccoc1 [Example 103, 3-cyano-4-((2′-fluoro-6-(furan-3-yl)-[2,3′-bipyridin]-5-yl)oxy)-N-(thiazol-2-yl)benzenesulfonamide] | > 100
N#Cc1cc(S(=O)(=O)Nc2nccs2)ccc1Oc1ccc(-c2ccc(F)nc2)nc1-c1ccoc1 [Example 104, 3-cyano-4-((6′-fluoro-6-(furan-3-yl)-[2,3′-bipyridin]-5-yl)oxy)-N-(thiazol-2-yl)benzenesulfonamide] | 51 to 100
N#Cc1cc(S(=O)(=O)Nc2nccs2)ccc1Oc1ccc(-c2cccnc2)nc1-c1ccoc1 [Example 105, 3-cyano-4-((6-(furan-3-yl)-[2,3′-bipyridin]-5-yl)oxy)-N-(thiazol-2-yl)benzenesulfonamide] | > 100
N#Cc1cc(S(=O)(=O)Nc2nccs2)ccc1Oc1ccc(-c2ccc(F)cc2)nc1-c1ccoc1 [Example 109, 3-cyano-4-((6-(4-fluorophenyl)-2-(furan-3-yl)pyridin-3-yl)oxy)-N-(thiazol-2-yl)benzenesulfonamide] | < 50
N#Cc1cc(S(=O)(=O)Nc2nccs2)ccc1Oc1ccc(-c2ccnc(F)c2)nc1-c1ccoc1 [Example 112, 3-cyano-4-((2′-fluoro-6-(furan-3-yl)-[2,4′-bipyridin]-5-yl)oxy)-N-(thiazol-2-yl)benzenesulfonamide] | 51 to 100
N#Cc1cc(S(=O)(=O)Nc2nccs2)ccc1Oc1ccc(-c2ccsc2)nc1-c1ccoc1 [Example 113, 3-cyano-4-((2-(furan-3-yl)-6-(thiophen-3-yl)pyridin-3-yl)oxy)-N-(thiazol-2-yl)benzenesulfonamide] | > 100
Cn1nccc1-c1nc(-c2ccc(F)nc2)ccc1Oc1ccc(S(=O)(=O)Nc2nccs2)cc1C#N [Example 115, 3-cyano-4-((6′-fluoro-6-(1-methyl-1H-pyrazol-5-yl)-[2,3′-bipyridin]-5-yl)oxy)-N-(thiazol-2-yl)benzenesulfonamide] | > 100
Cn1nccc1-c1nc(-c2cccc(F)c2)ccc1Oc1ccc(S(=O)(=O)Nc2nccs2)cc1C#N [Example 117, 3-cyano-4-((6-(3-fluorophenyl)-2-(1-methyl-1H-pyrazol-5-yl)pyridin-3-yl)oxy)-N-(thiazol-2-yl)benzenesulfonamide] | 51 to 100
